# Source: the METLIN SMRT retention time set (Domingo-Almenara et al. 2019)
# Experiment: gradient 5% acetonitrile 3 min, to 50% in 2 min, to 85% in 15 min, held 3 min, 100 µL/min
# Conditions: column: Zorbax Extend-C18 2.1 x 50 mm; eluents: water / acetonitrile, 0.1% formic acid
# Method in brief: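 The system's dead and dwell volumes were 40 μL and 900 μL, with a Zorbax Extend-C18 column (2.1 × 50 mm, 1.8 μm) run at 100 μL/min in water and acetonitrile containing 0.1% formic acid each. Pure standards were analyzed in mixtures of ~100 molecules by HPLC–quadrupole time-of-flight mass spectrometry in positive and negative ionization mode. Retention time was assigned from computationally picked, manually inspected adduct peaks.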
row,RP-LC retention time,SMILES
1,875 s,COCCN1C(=O)c2ccccc2C(C(=O)Nc2ccc3c(c2)OCO3)C1c1ccc(F)cc1 (configuration not stated)
2,724 s,CN(C)CCC[C@@]1(c2ccc(F)cc2)OCc2cc(C#N)ccc21
3,660 s,O=C(NC1CC1)C1CC(=O)N(c2ccc3c(c2)CCN3C(=O)C2CCC2)C1 (configuration not stated)
4,1060 s,COc1ccc(N2CCN(c3cc(SCC(=O)Nc4cc(C)cc(C)c4)ncn3)CC2)cc1
5,568 s,OCCNCCNCc1ccc(-c2cccc(Cl)c2)o1
6,1010 s,CCOC(=O)C(CC)n1cccc1-c1nc(-c2cccnc2)no1 (configuration not stated)
7,851 s,CCOc1ccc(NS(=O)(=O)c2cc(C(=O)Nc3ccc(F)cc3)n[nH]2)cc1
8,827 s,CCC(=O)N1CCc2sc(C(=O)N3CCN(c4ccccc4F)CC3)cc2C1
9,590 s,O=C(NCCCN1CCCC1=O)c1cccc(N2CCNC(c3ccccc3)C2)n1 (configuration not stated)
10,752 s,CN(CC(=O)N1CCN(c2ccccc2F)CC1)S(=O)(=O)c1c[nH]c(C(=O)N2CCCC2)c1
11,673 s,Cc1cc(-c2nnc(-c3ccc(F)cc3)o2)c(C)n1CC(=O)NCc1ccccn1
12,770 s,Cc1ccc2c(=O)c(C(=O)Nc3cccc(F)c3)c[nH]c2n1
13,1110 s,CCCCn1c(=O)c2ccccc2n(Cc2nc(-c3ccc(Cl)c(F)c3)no2)c1=O
14,663 s,Cc1nc(C)c(-c2nnc(NC(=O)c3ccc(F)cc3F)o2)s1
15,727 s,O=C(Nc1cc(F)ccc1F)Nc1cccn2cnnc12
16,876 s,COc1cc(NC(=O)Cn2cccc2-c2nnc(C3CCC3)o2)cc(OC)c1
17,780 s,CCCNC(=O)N1CCc2c(c(-c3nc(Cc4ccccc4)no3)nn2C)C1
18,724 s,CNC(=O)c1noc([C@@H]2CC(F)(F)CN2CC2CC2)n1
19,841 s,O=C(c1ccc2cc[nH]c2c1)N1CCC2(CC1)N=C(c1ccc(Cl)cc1)NO2
20,1030 s,Cn1nnc2ccc(-c3noc(-c4ccccc4Br)n3)cc21
21,641 s,CN(C)S(=O)(=O)N1CCCC(c2nc(-c3cccnc3)no2)CCNC(=O)CC1 (configuration not stated)
22,788 s,COc1ccc2c(=O)c(Oc3ccc(C(=O)Nc4nccs4)cc3)c(C)oc2c1
23,643 s,COCCCN1CN=C(Nc2nc(C)c3cc(OC)ccc3n2)NC1

row,RP-LC retention time,SMILES
1,823 s,Cc1ccc(CNC(=O)c2ccc(CN3CCN(Cc4ccc(F)cc4)C(=O)C3=O)cc2)o1
2,1240 s,O=C(C1CCCN(c2nccnc2Oc2ccccc2)C1)N1CCN(c2ccccc2Cl)CC1 (configuration not stated)
3,630 s,CC1Cc2cc(S(=O)(=O)N3CCC(C(N)=O)(N4CCCCC4)CC3)ccc2N1C(=O)C1CC1 (configuration not stated)
4,894 s,O=C(Cn1nc(N2CCOCC2)c2ccccc2c1=O)Nc1ccc(Br)cc1F
5,639 s,CCCNC(=O)C1CCN(c2ccc(SCC(=O)Nc3ccc(OCC)cc3)nn2)CC1
6,1020 s,Cc1ccc(CN(C(=O)C(C)Oc2ccc(Cl)c(C)c2)C2CCS(=O)(=O)C2)o1 (configuration not stated)
7,1080 s,CSc1cccc(NC(=O)Cn2nc(-n3cccc3)c3c(C)cc(C)nc32)c1
8,818 s,COc1cc(NC(=O)c2cn3c(n2)CN(CC(C)C)CC3)cc(OC)c1
9,652 s,CC(=O)Nc1ccc(NC(=O)Cn2ccc3ccc(-c4nnc(C)o4)cc32)cc1
10,545 s,CC(C)c1nnc(C2CCN(C(=O)c3ccc4nc[nH]c4c3)CC2)o1
11,659 s,Cc1cccc(S(=O)(=O)Nc2ccc(-c3cn4cccc(C)c4n3)cc2)c1
12,765 s,O=C(O)c1cnc(NCCc2cccs2)nc1-c1ccccn1
13,721 s,CC(C)n1cnc(S(=O)(=O)N2CCC(C(=O)NCc3ccc(F)cc3)CC2)c1
14,1140 s,COc1cccc(-n2cc(C(=O)OCC(=O)OC(C)(C)C)c3ccccc3c2=O)c1
15,890 s,Cc1ccc(CNc2c(-c3ccc(F)c(F)c3)nc3ncccn23)cc1
16,826 s,COc1ccc(NC(=O)N2CC=C(c3cn(C(C)C)c4ncccc34)CC2)cc1OC
17,486 s,CNC(=O)C(=O)Nc1ccc(N(C)C)cc1
18,726 s,O=C(NCCC1CCN(C(=O)Nc2ccc(F)cc2F)CC1)c1ccoc1
19,994 s,CC(C)(C)NC(=O)Cc1cccn1-c1ccc(Cl)cc1
20,555 s,Cc1ccc2c(Nc3ccccc3F)c(C(=O)N3CCCC3)cnc2n1
21,680 s,O=C(NCCn1c(=O)n(Cc2ccccc2)c2cccnc21)c1cnccn1
22,778 s,CCOC(=O)c1c(C)c(CCC(=O)N2CCN(C(=O)c3ccco3)CC2)n(CC)c1C
23,1050 s,Cc1csc(-c2cc(S(=O)(=O)NCc3ccc(Br)cc3)c(C)s2)n1

row,RP-LC retention time,SMILES
1,770 s,COc1ccccc1N1CCN(C(=O)CN2C(=O)NC(c3ccc(Cl)cc3)C3=C2COC3=O)CC1 (configuration not stated)
2,613 s,Cc1ccc2c(C(=O)NCC(C)C)cc(NC(=O)C3CCC3)cc2n1
3,1030 s,CCn1c(=O)c(N2CCC(NC(=O)Nc3ccccc3Br)CC2)nc2ccccc21
4,751 s,COc1ccc(C2Cn3cnc(C(=O)N4CCC(C(=O)Nc5cc(C)cc(C)c5)CC4)c3CO2)cc1 (configuration not stated)
5,670 s,CNC(=O)Nc1ccc(C2(C(=O)NCc3ccco3)CCC2)cc1
6,896 s,O=c1c2c(CO)c(-c3ccccc3)nn2ccn1Cc1ccccc1
7,780 s,Cn1c(-c2cccc(C(=O)NC3CCCCCC3)c2)nc2cccnc21
8,663 s,O=C1NCCCn2cc(S(=O)(=O)Nc3cccc(F)c3)cc21
9,863 s,Cc1nc(-c2ccc(-c3noc(C(C)NC(=O)c4ccco4)n3)cc2)cs1 (configuration not stated)
10,879 s,COc1ccc(-c2ccnc3nc(CCc4ccccc4)nn23)cc1OC
11,961 s,CCN1CCCc2cc(C(=O)NC3CCCC3)sc21
12,689 s,O=C(Nc1ccc(N2CCN(c3ccccc3)C2=O)nc1)c1ccncc1
13,696 s,CC(C)n1cc2cc(C(=O)N3CCN(Cc4ccc5c(c4)OCO5)CC3)sc2c1
14,902 s,O=C(O)C1CCN(c2nc3ccc(-c4ccc(F)cc4)nc3s2)CC1
15,632 s,CCc1ccc(Nc2nc(C(=O)NCCN3CCCC3)nc3ccccc23)cc1
16,596 s,COc1nccnc1N1CCC(NC(=O)Cc2c(C)noc2C)C1 (configuration not stated)
17,803 s,CC(C)OCCCNC(=O)C(C)n1c2ccccc2c2cnn(C)c(=O)c21 (configuration not stated)
18,830 s,CCn1ncn2cc(S(=O)(=O)Nc3ccccc3F)cc2c1=O
19,590 s,Cc1cc(C)c(S(=O)(=O)NCC2CN(C)CC23CCCCC3)c(C)c1 (configuration not stated)
20,717 s,Cn1nc(C(=O)N2CCCCC2)c2c1CCN(C(=O)Nc1ccc3c(c1)OCO3)C2
21,941 s,Cc1ccc(C(=O)NCc2ccc3c(c2)CCCN3C(=O)C2CCC2)c(C)c1
